Key:
[1] = target: T1, E. coli glutamine synthetase (rE. coli GS) (Escherichia coli, UniProt P0A9C5); assay: feedback inhibition enzyme assay at […]; type: biochemical
T1 construct: gene glnA; recombinant with 6xHis tag
T1 sequence (P0A9C5 2-469): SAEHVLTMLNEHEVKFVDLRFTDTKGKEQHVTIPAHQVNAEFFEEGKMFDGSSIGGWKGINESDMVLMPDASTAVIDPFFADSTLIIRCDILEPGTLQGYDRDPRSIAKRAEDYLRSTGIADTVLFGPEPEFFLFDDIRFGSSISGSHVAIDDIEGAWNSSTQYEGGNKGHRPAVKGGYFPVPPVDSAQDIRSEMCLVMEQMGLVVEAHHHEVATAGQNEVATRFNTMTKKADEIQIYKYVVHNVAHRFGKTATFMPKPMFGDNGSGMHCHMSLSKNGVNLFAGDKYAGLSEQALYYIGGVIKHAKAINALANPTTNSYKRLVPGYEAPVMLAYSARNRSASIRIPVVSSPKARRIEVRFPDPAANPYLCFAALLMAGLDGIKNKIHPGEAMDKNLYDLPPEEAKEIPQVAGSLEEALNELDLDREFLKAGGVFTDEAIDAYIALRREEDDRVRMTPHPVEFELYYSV

[2] = target: T2, Plasmodium falciparum glutamine synthetase lacking first peptide insert (ΔI1rPfGS) (Plasmodium falciparum, UniProt C0H551, DEL174-196); type: biochemical
T2 construct: gene PF3D7_0922600; recombinant, 6xHis tag, first peptide insert (amino acids 174–196) deleted

[3] = target: T3, Plasmodium berghei glutamine synthetase (rPbGS) (Plasmodium berghei, UniProt A0A509ANX1); assay: GS enzyme assay (Pi release/HPLC) with pre-incubation with ATP and MgCl2; kinetic Ki; type: biochemical
T3 construct: gene PBANKA_0823500; recombinant with N-terminal 6xHis tag, expressed in E. coli
T3 sequence (A0A509ANX1 1-553): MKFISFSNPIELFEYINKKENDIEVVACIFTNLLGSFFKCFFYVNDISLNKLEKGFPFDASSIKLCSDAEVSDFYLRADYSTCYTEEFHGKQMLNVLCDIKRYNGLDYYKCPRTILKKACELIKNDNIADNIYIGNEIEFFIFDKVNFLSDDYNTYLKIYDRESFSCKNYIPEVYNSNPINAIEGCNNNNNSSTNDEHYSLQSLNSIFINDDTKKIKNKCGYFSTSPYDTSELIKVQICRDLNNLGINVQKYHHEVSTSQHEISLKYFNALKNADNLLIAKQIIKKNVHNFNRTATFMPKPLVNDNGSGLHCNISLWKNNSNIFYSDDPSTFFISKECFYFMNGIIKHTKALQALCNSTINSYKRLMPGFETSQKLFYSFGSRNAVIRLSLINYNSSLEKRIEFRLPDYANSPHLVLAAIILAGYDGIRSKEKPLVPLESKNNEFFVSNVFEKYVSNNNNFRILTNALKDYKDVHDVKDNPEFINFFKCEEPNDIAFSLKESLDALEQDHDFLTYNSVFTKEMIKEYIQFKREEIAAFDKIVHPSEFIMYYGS

[4] = target: T4, Plasmodium falciparum glutamine synthetase (rPfGS) (Plasmodium falciparum, UniProt C0H551); assay: biochemical
T4 construct: gene PF3D7_0922600
T4 sequence (C0H551 1-543): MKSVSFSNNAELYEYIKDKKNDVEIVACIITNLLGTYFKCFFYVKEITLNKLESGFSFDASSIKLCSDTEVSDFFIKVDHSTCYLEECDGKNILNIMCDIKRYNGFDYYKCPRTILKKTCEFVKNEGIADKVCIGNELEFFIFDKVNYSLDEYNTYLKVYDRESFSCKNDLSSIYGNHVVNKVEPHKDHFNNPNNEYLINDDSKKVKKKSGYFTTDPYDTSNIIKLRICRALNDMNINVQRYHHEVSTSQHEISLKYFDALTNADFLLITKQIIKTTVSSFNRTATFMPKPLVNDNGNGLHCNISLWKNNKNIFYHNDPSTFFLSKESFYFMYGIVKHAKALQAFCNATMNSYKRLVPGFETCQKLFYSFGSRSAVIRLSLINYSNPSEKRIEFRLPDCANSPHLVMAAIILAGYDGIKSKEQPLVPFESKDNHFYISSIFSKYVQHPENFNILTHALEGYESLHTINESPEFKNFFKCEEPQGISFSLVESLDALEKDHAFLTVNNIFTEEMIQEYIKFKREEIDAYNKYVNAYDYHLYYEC

| SMILES | % [1] | GS enzyme assay, percent activity vs control [2] | Ki [3] | Ki [4] |
| --- | --- | --- | --- | --- |
| Nc1ncnc2c1ncn2[C@@H]1O[C@H](COP(=O)(O)O)[C@@H](O)[C@H]1O [AMP, adenosine monophosphate] | 30–40% inhibition at 5 mM |  |  |  |
| CS(=N)(=O)CC[C@H](N)C(=O)O (stereo partly drawn) [MSO, L-Methionine sulfoximine] |  | ΔI1rPfGS behaved like rPfGS in terms of specific activity (Fig. 3b), inhibition by MSO and PPT (Fig. 3c) | 5.44 ± 1.07 µM |  |
| CP(=O)(O)CC[C@H](N)C(=O)O [PPT, Phosphinothricin] |  | ΔI1rPfGS behaved like rPfGS in terms of specific activity (Fig. 3b), inhibition by MSO and PPT (Fig. 3c) | 8.07 ± 3.31 µM | 2.31 ± 1.1 µM |
| C[C@H](N)C(=O)O [alanine] | 30–40% inhibition at 5 mM |  |  |  |

Reference: paper PMC10349072, “Distinct evolution of type I glutamine synthetase in Plasmodium and its species-specific requirement” (Nature Communications, 2023)
